Laboratory results: BindingDB's records for patent US20230286970 (Italfarmaco, 2023)

How the values were obtained:
Assay in all cases: Enzymatic Activity Assay
Histone deacetylase 8 = biological target: T1, Histone deacetylase 8 (Homo sapiens, UniProt Q9BY41)
T1 sequence (Q9BY41 whole entry): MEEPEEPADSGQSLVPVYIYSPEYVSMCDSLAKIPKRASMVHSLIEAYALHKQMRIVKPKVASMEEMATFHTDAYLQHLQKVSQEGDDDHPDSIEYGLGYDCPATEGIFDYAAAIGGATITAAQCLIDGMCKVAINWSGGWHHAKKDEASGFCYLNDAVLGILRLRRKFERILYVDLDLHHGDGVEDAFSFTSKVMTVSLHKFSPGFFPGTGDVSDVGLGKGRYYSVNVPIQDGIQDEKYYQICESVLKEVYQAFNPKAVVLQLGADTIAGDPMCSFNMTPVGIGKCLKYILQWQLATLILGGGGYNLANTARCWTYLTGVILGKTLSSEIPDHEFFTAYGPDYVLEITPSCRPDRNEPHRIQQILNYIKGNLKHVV
Method: (§1) After a period of preincubation (incubation times and temperatures vary for different isoforms and are shown in table 1) 25 μL of solution containing the substrate were added. […] Enzymatic activity on recombinant human HDAC6 and HDAC1 was evaluated (Table 2) for each synthesized compound.

Histone deacetylase 3 = Histone deacetylase 3 (Homo sapiens, UniProt O15379)
Method: as §1

Histone deacetylase 11 = biological target: T2, Histone deacetylase 11 (Homo sapiens, UniProt Q96DB2)
T2 sequence (Q96DB2 whole entry): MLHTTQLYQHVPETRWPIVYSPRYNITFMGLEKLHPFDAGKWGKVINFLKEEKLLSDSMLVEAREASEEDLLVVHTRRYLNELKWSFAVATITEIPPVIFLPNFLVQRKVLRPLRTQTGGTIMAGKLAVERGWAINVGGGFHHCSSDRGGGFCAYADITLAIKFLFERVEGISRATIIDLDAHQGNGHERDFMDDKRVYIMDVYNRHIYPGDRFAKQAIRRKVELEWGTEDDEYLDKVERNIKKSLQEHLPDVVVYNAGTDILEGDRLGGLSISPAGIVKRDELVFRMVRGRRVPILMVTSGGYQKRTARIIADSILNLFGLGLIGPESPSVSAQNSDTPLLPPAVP
Method: as §1

Histone deacetylase 2 = Histone deacetylase 2 (Homo sapiens, UniProt Q92769)
Method: as §1

Histone deacetylase 9 = Histone deacetylase 9 (Homo sapiens, UniProt Q9UKV0)
Method: as §1

Histone deacetylase 4 = Histone deacetylase 4 (Homo sapiens, UniProt P56524)
Method: as §1

Histone deacetylase 7 = biological target: T3, Histone deacetylase 7 (Homo sapiens, UniProt Q8WUI4)
T3 sequence (Q8WUI4 whole entry): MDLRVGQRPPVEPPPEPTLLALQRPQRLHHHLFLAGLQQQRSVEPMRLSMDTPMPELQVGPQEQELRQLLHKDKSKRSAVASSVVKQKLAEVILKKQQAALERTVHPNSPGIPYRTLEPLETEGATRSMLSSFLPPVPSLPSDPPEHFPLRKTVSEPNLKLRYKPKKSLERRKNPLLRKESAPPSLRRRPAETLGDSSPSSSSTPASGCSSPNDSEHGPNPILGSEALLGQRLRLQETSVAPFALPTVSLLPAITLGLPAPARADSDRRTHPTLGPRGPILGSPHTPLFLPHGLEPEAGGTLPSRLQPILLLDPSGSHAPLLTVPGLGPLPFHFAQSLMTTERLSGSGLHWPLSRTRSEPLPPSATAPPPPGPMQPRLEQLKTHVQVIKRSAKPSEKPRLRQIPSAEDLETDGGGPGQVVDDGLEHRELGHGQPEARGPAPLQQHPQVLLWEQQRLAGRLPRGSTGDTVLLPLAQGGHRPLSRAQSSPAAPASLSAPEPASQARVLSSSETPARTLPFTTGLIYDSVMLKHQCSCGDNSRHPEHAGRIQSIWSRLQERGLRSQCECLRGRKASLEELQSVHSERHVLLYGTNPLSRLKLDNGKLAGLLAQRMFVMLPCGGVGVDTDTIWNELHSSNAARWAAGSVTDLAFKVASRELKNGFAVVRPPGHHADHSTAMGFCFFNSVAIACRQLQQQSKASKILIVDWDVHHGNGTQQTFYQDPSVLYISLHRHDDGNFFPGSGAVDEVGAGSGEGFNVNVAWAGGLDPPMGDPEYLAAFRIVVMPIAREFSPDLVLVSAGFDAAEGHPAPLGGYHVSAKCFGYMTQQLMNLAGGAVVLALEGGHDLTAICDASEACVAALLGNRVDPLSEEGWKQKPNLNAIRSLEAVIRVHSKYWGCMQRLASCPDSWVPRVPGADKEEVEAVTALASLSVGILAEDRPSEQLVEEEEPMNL
Method: as §1

Histone deacetylase 4, sequence (P56524 whole entry): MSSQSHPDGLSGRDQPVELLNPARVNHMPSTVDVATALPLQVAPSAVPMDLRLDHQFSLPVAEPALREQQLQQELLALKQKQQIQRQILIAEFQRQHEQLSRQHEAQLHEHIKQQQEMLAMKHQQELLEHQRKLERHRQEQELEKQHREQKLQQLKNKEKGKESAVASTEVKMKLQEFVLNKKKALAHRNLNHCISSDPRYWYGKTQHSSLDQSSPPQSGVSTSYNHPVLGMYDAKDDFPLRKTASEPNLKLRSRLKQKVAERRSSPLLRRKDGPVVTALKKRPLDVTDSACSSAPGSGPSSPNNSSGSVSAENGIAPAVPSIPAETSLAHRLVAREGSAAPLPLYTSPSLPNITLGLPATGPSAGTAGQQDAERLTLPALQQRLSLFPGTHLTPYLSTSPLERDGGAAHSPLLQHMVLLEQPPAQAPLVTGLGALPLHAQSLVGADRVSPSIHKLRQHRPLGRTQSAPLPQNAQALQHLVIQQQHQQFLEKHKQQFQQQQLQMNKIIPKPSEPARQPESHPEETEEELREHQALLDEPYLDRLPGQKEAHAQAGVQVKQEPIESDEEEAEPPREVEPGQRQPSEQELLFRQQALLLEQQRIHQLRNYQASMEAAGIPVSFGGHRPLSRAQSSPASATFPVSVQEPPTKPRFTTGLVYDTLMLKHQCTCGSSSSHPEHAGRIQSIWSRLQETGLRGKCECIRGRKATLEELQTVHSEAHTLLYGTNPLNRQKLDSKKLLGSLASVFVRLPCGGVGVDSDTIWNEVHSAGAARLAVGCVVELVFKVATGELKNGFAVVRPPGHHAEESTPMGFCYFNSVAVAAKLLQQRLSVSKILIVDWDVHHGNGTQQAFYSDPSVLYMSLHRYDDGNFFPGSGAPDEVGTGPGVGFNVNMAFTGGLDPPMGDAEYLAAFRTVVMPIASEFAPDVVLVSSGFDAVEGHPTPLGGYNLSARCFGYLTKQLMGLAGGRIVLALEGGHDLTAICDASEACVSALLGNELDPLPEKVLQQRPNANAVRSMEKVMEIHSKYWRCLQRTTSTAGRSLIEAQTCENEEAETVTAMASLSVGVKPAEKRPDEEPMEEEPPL
Histone deacetylase 2, sequence (Q92769 whole entry): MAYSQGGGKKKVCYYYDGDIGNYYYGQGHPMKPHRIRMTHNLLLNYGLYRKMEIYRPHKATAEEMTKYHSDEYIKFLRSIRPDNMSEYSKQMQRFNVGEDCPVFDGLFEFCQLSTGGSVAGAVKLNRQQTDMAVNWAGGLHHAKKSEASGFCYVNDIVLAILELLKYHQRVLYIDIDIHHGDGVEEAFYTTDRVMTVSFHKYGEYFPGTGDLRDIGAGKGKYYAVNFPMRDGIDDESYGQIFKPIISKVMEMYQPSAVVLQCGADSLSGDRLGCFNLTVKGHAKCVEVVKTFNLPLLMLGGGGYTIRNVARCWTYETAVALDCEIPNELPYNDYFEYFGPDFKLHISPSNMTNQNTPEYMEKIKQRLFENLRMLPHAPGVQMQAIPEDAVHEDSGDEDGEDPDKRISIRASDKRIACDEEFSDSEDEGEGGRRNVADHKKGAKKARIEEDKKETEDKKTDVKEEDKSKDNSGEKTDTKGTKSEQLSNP
Histone deacetylase 3, sequence (O15379 whole entry): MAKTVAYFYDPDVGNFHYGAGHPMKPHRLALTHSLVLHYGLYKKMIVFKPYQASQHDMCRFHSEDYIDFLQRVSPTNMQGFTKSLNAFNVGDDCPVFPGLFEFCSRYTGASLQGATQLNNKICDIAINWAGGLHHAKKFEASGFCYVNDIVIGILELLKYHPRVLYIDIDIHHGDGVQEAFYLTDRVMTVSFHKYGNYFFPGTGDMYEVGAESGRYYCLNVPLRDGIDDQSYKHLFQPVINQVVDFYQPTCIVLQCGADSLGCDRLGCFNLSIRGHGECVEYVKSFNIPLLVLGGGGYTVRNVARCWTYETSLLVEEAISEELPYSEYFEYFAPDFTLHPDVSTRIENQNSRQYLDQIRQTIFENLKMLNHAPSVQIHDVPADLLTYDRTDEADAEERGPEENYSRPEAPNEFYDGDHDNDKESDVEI
Histone deacetylase 9, sequence (Q9UKV0 whole entry): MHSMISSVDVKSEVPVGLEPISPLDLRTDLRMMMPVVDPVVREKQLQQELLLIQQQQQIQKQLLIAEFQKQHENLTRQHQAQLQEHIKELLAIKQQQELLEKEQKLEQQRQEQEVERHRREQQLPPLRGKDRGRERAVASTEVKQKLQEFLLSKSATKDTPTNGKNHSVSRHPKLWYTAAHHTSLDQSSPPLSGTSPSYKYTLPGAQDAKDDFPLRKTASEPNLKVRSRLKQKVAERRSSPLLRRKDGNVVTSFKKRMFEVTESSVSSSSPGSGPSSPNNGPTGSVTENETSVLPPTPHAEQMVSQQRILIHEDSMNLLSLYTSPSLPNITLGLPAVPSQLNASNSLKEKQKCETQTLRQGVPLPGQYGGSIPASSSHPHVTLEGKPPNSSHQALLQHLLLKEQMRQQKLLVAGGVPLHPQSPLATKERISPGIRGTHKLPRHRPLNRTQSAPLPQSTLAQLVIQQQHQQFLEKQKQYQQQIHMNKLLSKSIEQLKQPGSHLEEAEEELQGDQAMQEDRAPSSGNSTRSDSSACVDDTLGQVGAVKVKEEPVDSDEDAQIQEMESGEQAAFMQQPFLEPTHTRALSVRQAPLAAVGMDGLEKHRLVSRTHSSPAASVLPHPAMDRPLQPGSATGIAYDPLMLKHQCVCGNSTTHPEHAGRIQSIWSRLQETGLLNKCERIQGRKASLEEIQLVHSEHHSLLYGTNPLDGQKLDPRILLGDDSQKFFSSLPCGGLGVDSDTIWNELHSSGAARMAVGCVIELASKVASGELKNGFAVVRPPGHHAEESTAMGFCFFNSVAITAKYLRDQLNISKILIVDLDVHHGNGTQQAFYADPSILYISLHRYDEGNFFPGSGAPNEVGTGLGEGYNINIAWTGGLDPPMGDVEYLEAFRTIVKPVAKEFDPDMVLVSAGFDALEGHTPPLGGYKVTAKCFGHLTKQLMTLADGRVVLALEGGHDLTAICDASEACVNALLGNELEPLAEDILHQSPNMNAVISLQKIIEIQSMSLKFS

IC50 (Histone deacetylase 8)	IC50 (Histone deacetylase 3)	IC50 (Histone deacetylase 11)	IC50 (Histone deacetylase 2)	IC50 (Histone deacetylase 9)	IC50 (Histone deacetylase 4)	IC50 (Histone deacetylase 7)	SMILES
> 200 µM	> 30 µM	> 30 µM	> 30 µM	> 30 µM	> 30 µM	> 30 µM	Nc1nc2ccc(-c3cn(Cc4ccc(-c5nnc(C(F)F)o5)cc4)nn3)cc2s1 [US20230286970, Compound 14]
> 200 µM	> 30 µM	> 30 µM	> 30 µM	> 30 µM	> 30 µM	> 30 µM	Nc1ccc(-c2cn(Cc3ccc(-c4nnc(C(F)F)o4)c(F)c3)nn2)cn1 [US20230286970, Compound 15]
